Measurements as given in article PMC9271048, “Probing strigolactone perception mechanisms with rationally designed small-molecule agonists stimulating germination of root parasitic weeds” (Nature Communications, 2022).
Like-named read-outs stand apart in the source and are kept apart here.

Legend:
[1] = molecular target: T1, ShHTL7 (Striga hermonthica, UniProt A0A0M3PNA2); assay: biochemical; type: binding; conditions: Supplementary Table 7; binding affinities between ShHTL7 and agonists by SPR; read-out: KD/μM
T1 sequence (A0A0M3PNA2 entry or part of it): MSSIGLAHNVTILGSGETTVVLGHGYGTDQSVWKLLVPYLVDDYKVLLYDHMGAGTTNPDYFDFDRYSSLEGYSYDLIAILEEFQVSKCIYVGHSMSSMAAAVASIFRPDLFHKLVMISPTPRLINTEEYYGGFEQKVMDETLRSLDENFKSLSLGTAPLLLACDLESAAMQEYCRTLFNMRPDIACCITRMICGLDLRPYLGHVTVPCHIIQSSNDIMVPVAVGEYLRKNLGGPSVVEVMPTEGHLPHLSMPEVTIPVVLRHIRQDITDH
In short: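 Surface plasmon resonance was run at 25 °C on ShHTL7 immobilized by amine coupling, using phosphate-buffered saline with 0.05% P20 and 0.5% DMSO. Each injection had 1 min association and 1 min dissociation, with a 50 μM screen followed by concentration series. KD was derived by kinetic analysis or steady-state affinity.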

[2] = molecular target: T1, ShHTL7; assay: Competitive inhibition of ShHTL7 with Yoshimulactone Green (YLG) as substrate; type: biochemical
In short: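 YLG hydrolysis by ShHTL7 followed by fluorescence (ex 480/em 520 nm) every 1 min for 30 min; compounds and YLG from fresh DMSO stocks. After subtracting no-enzyme background, the linear 8-min increase was used; IC50 fitted from relative inhibition versus compound concentration.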

[3] = Chemical reactivity analysis (HPLC, methanol/PBS pH 7.4); type: physicochemical
In short: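 Samples were diluted into 10 mM PBS pH 7.4 with methanol and kept at 26 ± 1 °C. The remaining compound was followed by C18 HPLC (CH3CN/H2O 50:50 with 0.1% HCO2H, 1 mL/min). Half-lives were derived from the percentage remaining, calculated from peak areas.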

[4] = tested on: ShHTLs (10 HTL proteins in S. hermonthica); assay: YLG-based competition assay on HTL proteins of S. hermonthica; type: biochemical, Striga hermonthica; conditions: Supplementary Fig. 27
In short: (§1)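 Competition with fluorogenic substrate YLG ([…]) for hydrolysis by each HTL or KAI2 protein; fluorescence (Ex 480/Em 520 nm) recorded every 1 min for 30 min. Linear 8-min increase, background hydrolysis subtracted, used; IC50 from fitted relative inhibition versus concentration.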

[5] = tested on: PaKAI2s (5 KAI2 protein homologs in P. aegyptiaca); assay: YLG-based competition assay on KAI2 protein homologs of P. aegyptiaca; type: biochemical, Phelipanche aegyptiaca; conditions: Supplementary Fig. 27
In short: as §1

CC1=CC(CC(=O)N2CCN(C(=O)COc3ccc(Br)cc3C)CC2)OC1=O (stereo not drawn) [4i]
Kd [1]: 2.93 ± 0.087 µM | IC50 ([2]; ShHTL7, YLG competition, Supplementary Fig. 27, read-out: IC50, replicate 1): 5.98 µM | IC50 ([2]; ShHTL7, YLG competition, Supplementary Fig. 27, read-out: IC50, replicate 2): 5.2 µM | IC50 ([2]; ShHTL7, YLG competition, Supplementary Fig. 27, read-out: IC50, replicate 3): 4.35 µM | IC50 ([2]; wild-type ShHTL7, average of 3, source data of Fig. 2a,b, Supplementary Figs. 8a, 9a, 20b, read-out: IC50, competitive ShHTL7 inhibition (YLG), source data average): 5.18 µM | reactivity in methanol/PBS ([3]; 1:3 methanol and PBS (10 mM) pH 7.4): no apparent hydrolysis was observed in 6 days | half-life time (t1/2), source data average ([3]; Supplementary Fig. 10 source data, methanol/PBS pH 7.4, 26 °C): >144 h | IC50 ([4]; ShHTL2, YLG competition, read-out: IC50, replicate 1): 50.6 µM | IC50 ([4]; ShHTL2, YLG competition, read-out: IC50, replicate 2): 70.1 µM | IC50 ([4]; ShHTL2, YLG competition, read-out: IC50, replicate 3): 65.1 µM | IC50 ([4]; ShHTL2, average of 3 replicates, read-out: IC50, average): 61.9 µM | IC50 ([4]; ShHTL3, YLG competition, read-out: IC50, replicate 1): > 100 µM | IC50 ([4]; ShHTL3, YLG competition, read-out: IC50, replicate 2): > 100 µM | IC50 ([4]; ShHTL3, YLG competition, read-out: IC50, replicate 3): > 100 µM | IC50 ([4]; ShHTL3, average of 3 replicates, read-out: IC50, average): > 100 µM | IC50 ([4]; ShHTL4, YLG competition, read-out: IC50, replicate 1): 15 µM | IC50 ([4]; ShHTL4, YLG competition, read-out: IC50, replicate 2): 21.2 µM | IC50 ([4]; ShHTL4, YLG competition, read-out: IC50, replicate 3): 16.4 µM | IC50 ([4]; ShHTL4, average of 3 replicates, read-out: IC50, average): 17.5 µM | IC50 ([4]; ShHTL5, YLG competition, read-out: IC50, replicate 1): 48.9 µM | IC50 ([4]; ShHTL5, YLG competition, read-out: IC50, replicate 2): 42.2 µM | IC50 ([4]; ShHTL5, YLG competition, read-out: IC50, replicate 3): 43 µM | IC50 ([4]; ShHTL5, average of 3 replicates, read-out: IC50, average): 44.7 µM | IC50 ([4]; ShHTL6, YLG competition, read-out: IC50, replicate 1): 79.2 µM | IC50 ([4]; ShHTL6, YLG competition, read-out: IC50, replicate 2): 55 µM | IC50 ([4]; ShHTL6, YLG competition, read-out: IC50, replicate 3): 69.4 µM | IC50 ([4]; ShHTL6, average of 3 replicates, read-out: IC50, average): 67.9 µM | IC50 ([4]; ShHTL8, YLG competition, read-out: IC50, replicate 1): 72.8 µM | IC50 ([4]; ShHTL8, YLG competition, read-out: IC50, replicate 2): 71.1 µM | IC50 ([4]; ShHTL8, YLG competition, read-out: IC50, replicate 3): 75.4 µM | IC50 ([4]; ShHTL8, average of 3 replicates, read-out: IC50, average): 73.1 µM | IC50 ([4]; ShHTL9, YLG competition, read-out: IC50, replicate 1): 22.6 µM | IC50 ([4]; ShHTL9, YLG competition, read-out: IC50, replicate 2): 24.8 µM | IC50 ([4]; ShHTL9, YLG competition, read-out: IC50, replicate 3): 12.7 µM | IC50 ([4]; ShHTL9, average of 3 replicates, read-out: IC50, average): 20.1 µM | IC50 ([4]; ShHTL10, YLG competition, read-out: IC50, replicate 1): 69.6 µM | IC50 ([4]; ShHTL10, YLG competition, read-out: IC50, replicate 2): 67.6 µM | IC50 ([4]; ShHTL10, YLG competition, read-out: IC50, replicate 3): 57.8 µM | IC50 ([4]; ShHTL10, average of 3 replicates, read-out: IC50, average): 65 µM | IC50 ([4]; ShHTL11, YLG competition, read-out: IC50, replicate 1): 91.9 µM | IC50 ([4]; ShHTL11, YLG competition, read-out: IC50, replicate 2): 101 µM | IC50 ([4]; ShHTL11, YLG competition, read-out: IC50, replicate 3): 86 µM | IC50 ([4]; ShHTL11, average of 3 replicates, read-out: IC50, average): 93 µM | IC50 ([5]; KAI2C, YLG competition, read-out: IC50, replicate 1): 48.7 µM | IC50 ([5]; KAI2C, YLG competition, read-out: IC50, replicate 2): 57 µM | IC50 ([5]; KAI2C, YLG competition, read-out: IC50, replicate 3): 49.5 µM | IC50 ([5]; KAI2C, average of 3 replicates, read-out: IC50, average): 51.7 µM | IC50 ([5]; KAI2d1, YLG competition, read-out: IC50, replicate 1): 24 µM | IC50 ([5]; KAI2d1, YLG competition, read-out: IC50, replicate 2): 16.7 µM | IC50 ([5]; KAI2d1, YLG competition, read-out: IC50, replicate 3): 20.1 µM | IC50 ([5]; KAI2d1, average of 3 replicates, read-out: IC50, average): 20.3 µM | IC50 ([5]; KAI2d2, YLG competition, read-out: IC50, replicate 1): 54.2 µM | IC50 ([5]; KAI2d2, YLG competition, read-out: IC50, replicate 2): 57.7 µM | IC50 ([5]; KAI2d2, YLG competition, read-out: IC50, replicate 3): 57.5 µM | IC50 ([5]; KAI2d2, average of 3 replicates, read-out: IC50, average): 56.5 µM | IC50 ([5]; KAI2d3, YLG competition, read-out: IC50, replicate 1): 51.4 µM | IC50 ([5]; KAI2d3, YLG competition, read-out: IC50, replicate 2): 41.1 µM | IC50 ([5]; KAI2d3, YLG competition, read-out: IC50, replicate 3): 40.4 µM | IC50 ([5]; KAI2d3, average of 3 replicates, read-out: IC50, average): 44.3 µM | IC50 ([5]; KAI2d4, YLG competition, read-out: IC50, replicate 1): 30.7 µM | IC50 ([5]; KAI2d4, YLG competition, read-out: IC50, replicate 2): 31.7 µM | IC50 ([5]; KAI2d4, YLG competition, read-out: IC50, replicate 3): 26.9 µM | IC50 ([5]; KAI2d4, average of 3 replicates, read-out: IC50, average): 29.8 µM
